Results taken from patent US20150209794A1, “MODIFIED MICRONIZATION DEVICE AND METHOD THEREOF” (OEKOMINERAL AG, priority 2014, published 2015).

Assay: Amorphous content / crystalline disorder by isothermal calorimetry (IC TAM 3)
Assay type: physicochemical
Settings: ursolic acid, five repeated micronization procedures
Method: 1 kg of each sample of ursolic acid (98% purity, Sigma Aldrich) of an average particle size of […] was micronized five times in devices having different hitting elements. The discs were cooled through a feeder opening with liquid nitrogen spraying to avoid overheating of the heat-sensitive substance.
The micronized samples were analyzed for particle size (Malvern MasterSizer 2000), while the extent of crystalline disorder of particles was quantified with isothermal calorimetry (IC TAM 3, TA instruments, USA). Data was recorded with proprietary software Digitam 4.2.

C[C@H]1[C@H](C)CC[C@]2(C(=O)O)CC[C@]3(C)C(=CC[C@@H]4[C@@]5(C)CC[C@H](O)C(C)(C)[C@@H]5CC[C@]43C)[C@H]12 [ursolic acid]
Amorphous Content (MICRONIZATION-1): 3.68 %, w/w
Amorphous Content (MICRONIZATION-2): 6.12 %, w/w
Amorphous Content (MICRONIZATION-3): 19.23 %, w/w
